Laboratory results from publication PMC7504215, “Copper(II) Complexes with Mixed Heterocycle Ligands as Promising Antibacterial and Antitumor Species” (Molecules, 2020).

Key:
[1] = test system: MRSA; experiment: MIC assay, liquid medium microdilution (planktonic growth); assay type: cell-based, Staphylococcus aureus; conditions: 24 h at 37 °C
Procedure: (§1) The antibacterial assays were performed on Gram-negative (Escherichia coli ATCC 25922, E. coli 5, Pseudomonas aeruginosa ATCC 27853, P. aeruginosa ATCC 9027) and Gram-positive (Staphylococcus aureus ATCC 25923, S. aureus ATCC 6538, MRSA (Meticillin-resistant S. aureus) 388, ATCC, American Type Culture Collection) bacterial strains. Microbial suspensions (1.5 × 10^8 CFU/mL; colony forming units (CFU)) corresponding to 0.5 McFarland density obtained from 15 to 18-h bacterial cultures developed on solid media were used. The antimicrobial activity was tested on Mueller–Hinton agar medium.
(§2) The quantitative assay of the antimicrobial activity was performed by the liquid medium microdilution method, in 96-well multi-well plates, to establish the minimal inhibitory concentration (MIC). For this purpose, serial two-fold dilutions of the compounds ranging between 1.000 and 1.95 μg/mL were performed in a 200 μL volume of broth and each well was seeded with 50 μL microbial inoculums. Sterility control (wells containing only culture medium) and culture controls (wells containing culture medium seeded with the microbial inoculum) were used. The influence of the DMSO solvent was also quantified in a series of wells containing DMSO, diluted accordingly with the dilution scheme used for the complexes. The plates were incubated for 24 h at 37 °C, and MIC values were considered as the lowest concentration of the tested compound that inhibited the visible growth of the microbial overnight cultures.

[2] = test system: S. aureus 25923; experiment: as above; assay type: cell-based, Staphylococcus aureus; conditions: S. aureus 25923, 24 h at 37 °C
Procedure: as §1, §2

[3] = test system: S. aureus 6538; experiment: as above; assay type: cell-based, Staphylococcus aureus; conditions: S. aureus 6538, 24 h at 37 °C
Procedure: as §1, §2

[4] = test system: P. aeruginosa 27853; experiment: MBEC assay, micro-titer method (biofilm); assay type: cell-based, Pseudomonas aeruginosa
Procedure: as §1
(§3) The assessment of the complexes’ influence on the microbial ability to colonize an inert substratum with the establishment of the minimal biofilm eradication concentration (MBEC) was performed by the micro-titer method, following previously described protocols. The absorbance at 490 nm was measured with an Apollo LB 911ELISA (Berthold Technologies GmbH & Co. KG, Waltham, MA, USA) reader. All experiments were performed in triplicates.

[5] = test system: P. aeruginosa 9027; experiment: MBEC assay, micro-titer method (biofilm); assay type: cell-based, Pseudomonas aeruginosa
Procedure: as §1, §3

[6] = test system: S. aureus 25923; experiment: MBEC assay, micro-titer method (biofilm); assay type: cell-based, Staphylococcus aureus
Procedure: as §1, §3

How did the MIC [1] turn out when `Cc1cc(-c2ccccc2)nc2ncnn12.[Cu+2].[O-][Cl+3]([O-])([O-])[O-].[O-][Cl+3]([O-])([O-])[O-].c1ccc(-c2ccccn2)nc1.c1ccc(-c2ccccn2)nc1` [(1), [Cu(bpy)2(pmtp)](ClO4)2] was run?
Its MIC is 400 µM.

What about the MIC [2] of the same molecule?
Its MIC is 400 µM.

And the MIC [3]?
Its MIC is 400 µM.

And the MBEC value [4]?
Its MBEC value is 0.40 mM.

And the MBEC value [5]?
The MBEC value was 0.20 mM.

Which results are given for `Cc1cc(-c2ccccc2)nc2ncnn12.[Cu+2].[O-][Cl+3]([O-])([O-])[O-].[O-][Cl+3]([O-])([O-])[O-].c1cnc2c(c1)ccc1cccnc12.c1cnc2c(c1)ccc1cccnc12` [(2), [Cu(phen)2(pmtp)](ClO4)2]?
MIC [1]: 50 µM; MIC [2]: 10 µM; MIC [3]: 90 µM; MBEC value [4]: 0.09 mM; MBEC value [5]: 0.01 mM; MBEC value [6]: 0.01 mM
